Results reported in patent US20240025862A1, “SUBSTITUTED N-PHENYLURACILS AND SALTS THEREOF, AND USE THEREOF AS HERBICIDAL ACTIVE SUBSTANCES” (Bayer Aktiengesellschaft, priority 2020, published 2024).

Columns and labels:
Assay type in all cases: in vivo
Lolium rigidum (LOLRI) = assay: Post-emergence herbicidal action, greenhouse pot test; details: for Post-emergence action against LOLRI in %: dosage 20 g/ha
Procedure, shortened: (§1)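 Activity was scored by eye about 3 weeks after treatment against untreated plants, where 100% means dead plants and 0% means no difference. Plants at the one-leaf stage received a foliar spray of WP or EC formulations in water plus 0.5% additive (600 l/ha, up to 20 g/ha). Plants were grown in sandy loam pots in a greenhouse for 2–3 weeks before spraying.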

Veronica persica (VERPE) = assay: as above
Procedure, shortened: as §1

[1] = system: Amaranthus retroflexus (AMARE); assay: as above; details: rated visually after about 3 weeks vs untreated controls, 100% = plants have died
Procedure, shortened: as §1

Avena fatua (AVEFA) = assay: as above; details: 20 g/ha, rated visually after about 3 weeks vs untreated controls, 100% = plants have died
Procedure, shortened: as §1

Hordeum murinum (HORMU) = assay: as above; details: rated visually after about 3 weeks vs untreated controls, 100% = plants have died
Procedure, shortened: as §1

Viola tricolor (VIOTR) = assay: as above
Procedure, shortened: as §1

[2] = system: Polygonum convolvulus (POLCO); assay: as above
Procedure, shortened: as §1

Stellaria media (STEME) = assay: as above
Procedure, shortened: as §1

[3] = system: Abutilon theophrasti (ABUTH); assay: as above; details: rated visually after about 3 weeks vs untreated controls, 100% = plants have died
Procedure, shortened: as §1

[4] = system: Pharbitis purpurea (PHBPU); assay: as above
Procedure, shortened: as §1

Oryza sativa (ORYSA) = assay: Post-emergence crop plant compatibility, greenhouse pot test (also comparative test C); details: 1.25 g/ha, vs untreated controls
Procedure, shortened: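 Visual damage versus untreated plants (0% = like control, 100% = plants died) was scored about 3 weeks after a post-emergence spray in greenhouse pots. Treatment: one-leaf stage, WP or EC in water at 600 l/ha with 0.5% additive; a/b/c mark different dosages on the same crop.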

[5] = system: Echinochloa crus-galli (ECHCG); assay: Post-emergence herbicidal action, greenhouse pot test (also comparative test C); details: for Post-emergence action at 1.25 g/ha against ECHCG in %: rated visually after about 3 weeks vs untreated controls, 100% = plants have died
Procedure, shortened: (§2)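 Visual rating against untreated controls, about 3 weeks after spraying, from 0% (like control) to 100% (plants dead). Weeds were treated at the one-leaf stage, 2–3 weeks after sowing in sandy loam, with aqueous WP/EC spray containing 0.5% additive at 600 l/ha. Doses were ≤20 g/ha, or ≤5 g/ha for comparative test C.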

Setaria viridis (SETVI) = assay: as above; details: for Post-emergence action against SETVI: 20 g/ha
Procedure, shortened: as §2

[6] = system: Alopecurus myosuroides (ALOMY); assay: as above; details: rated visually after about 3 weeks vs untreated controls, 100% = plants have died
Procedure, shortened: as §2

[7] = system: Matricaria inodora (MATIN); assay: as above
Procedure, shortened: as §2

Brassica napus (BRSNW) = assay: Post-emergence crop plant compatibility, greenhouse pot test; details: 1.25 g/ha, vs untreated controls
Procedure, shortened: (§3)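 Values are visual % damage versus untreated controls (100% = plants died) about 3 weeks after treatment. Plants in sandy loam were sprayed at the one-leaf stage, 2–3 weeks after sowing, with aqueous WP/EC preparations plus 0.5% additive at 600 l/ha; a/b/c mark different dose levels.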

Zea mays (ZEAMX) = assay: as above; details: vs untreated controls
Procedure, shortened: as §3

[8] = system: Triticum aestivum (TRZAS); assay: as above; details: 1.25 g/ha, vs untreated controls
Procedure, shortened: as §3

COCCOCCOC(=O)COc1ccccc1Sc1cc(-n2c(=O)cc(C(F)(F)F)n(C)c2=O)c(F)cc1Cl [I.1-23]
100%: Post-emergence action against VERPE (Veronica persica (VERPE); 1.25 g/ha) | Post-emergence action against VERPE (Veronica persica (VERPE); 5 g/ha) | Post-emergence action against VERPE (Veronica persica (VERPE); 20 g/ha) | Post-emergence action at 1.25 g/ha against AMARE in % [1] | Post-emergence action at 5 g/ha against AMARE in % [1] | Post-emergence action at 20 g/ha against AMARE in % [1] | Post-emergence action at 20 g/ha against HORMU in % (Hordeum murinum (HORMU)) | Post-emergence action against VIOTR (Viola tricolor (VIOTR); 1.25 g/ha) | Post-emergence action against VIOTR (Viola tricolor (VIOTR); 5 g/ha) | Post-emergence action against VIOTR (Viola tricolor (VIOTR); 20 g/ha) | Post-emergence action against POLCO in % ([2]; dosage 1.25 g/ha) | Post-emergence action against POLCO in % ([2]; dosage 5 g/ha) | Post-emergence action against POLCO in % ([2]; dosage 20 g/ha) | Post-emergence action against STEME (Stellaria media (STEME); 5 g/ha) | Post-emergence action against STEME (Stellaria media (STEME); 20 g/ha) | Post-emergence action at 1.25 g/ha against ABUTH in % [3] | Post-emergence action at 5 g/ha against ABUTH in % [3] | Post-emergence action at 20 g/ha against ABUTH in % [3] | Post-emergence action against PHBPU in % ([4]; dosage 1.25 g/ha) | Post-emergence action against PHBPU in % ([4]; dosage 5 g/ha) | Post-emergence action against PHBPU in % ([4]; dosage 20 g/ha) | Post-emergence action against ECHCG in % ([5]; dosage 5 g/ha) | Post-emergence action against ECHCG in % ([5]; dosage 20 g/ha) | Post-emergence action against SETVI (Setaria viridis (SETVI)) | Post-emergence action against SETVI in % (Setaria viridis (SETVI); dosage 1.25 g/ha) | Post-emergence action against SETVI in % (Setaria viridis (SETVI); dosage 5 g/ha) | Post-emergence action against MATIN in % ([7]; dosage 5 g/ha) | Post-emergence action against MATIN in % ([7]; dosage 20 g/ha)
20%: Post-emergence action against ORYSA (crop plant compatibility) (Oryza sativa (ORYSA)) | Post-emergence action against BRSNW (crop plant compatibility) (Brassica napus (BRSNW)) | Post-emergence action against TRZAS (crop plant compatibility) [8]
10%: Post-emergence action against ZEAMX (crop plant compatibility) (Zea mays (ZEAMX); 1.25 g/ha)
80%: Post-emergence action against LOLRI in % (Lolium rigidum (LOLRI)) | Post-emergence action at 20 g/ha against AVEFA in % (Avena fatua (AVEFA)) | Post-emergence action at 5 g/ha against HORMU in % (Hordeum murinum (HORMU)) | Post-emergence action against STEME (Stellaria media (STEME); 1.25 g/ha) | Post-emergence action against MATIN in % ([7]; dosage 1.25 g/ha)
90%: Post-emergence action at 1.25 g/ha against ECHCG in % [5] | Post-emergence action at 5 g/ha against ALOMY in % [6] | Post-emergence action at 20 g/ha against ALOMY in % [6]

COCCCOC(=O)COc1ccccc1Sc1cc(-n2c(=O)cc(C(F)(F)F)n(C)c2=O)c(F)cc1Cl [I.1-26]
80%: Post-emergence action at 5 g/ha against LOLRI in % (Lolium rigidum (LOLRI); 5 g/ha, rated visually after about 3 weeks vs untreated controls, 100% = plants have died) | Post-emergence action at 20 g/ha against AVEFA in % (Avena fatua (AVEFA)) | Post-emergence action at 5 g/ha against HORMU in % (Hordeum murinum (HORMU)) | Post-emergence action at 5 g/ha against ALOMY in % [6] | Post-emergence action against MATIN in % ([7]; dosage 1.25 g/ha) | Post-emergence action against MATIN in % ([7]; dosage 5 g/ha)
90%: Post-emergence action against LOLRI in % (Lolium rigidum (LOLRI)) | Post-emergence action at 20 g/ha against HORMU in % (Hordeum murinum (HORMU)) | Post-emergence action at 1.25 g/ha against ECHCG in % [5] | Post-emergence action against ECHCG in % ([5]; dosage 5 g/ha) | Post-emergence action at 20 g/ha against ALOMY in % [6]
10%: Post-emergence action against ORYSA (crop plant compatibility) (Oryza sativa (ORYSA)) | Post-emergence action against ZEAMX (crop plant compatibility) (Zea mays (ZEAMX); 1.25 g/ha)
20%: Post-emergence action against BRSNW (crop plant compatibility) (Brassica napus (BRSNW)) | Post-emergence action against ZEAMX (crop plant compatibility) (Zea mays (ZEAMX); 5 g/ha)
100%: Post-emergence action against VERPE (Veronica persica (VERPE); 1.25 g/ha) | Post-emergence action against VERPE (Veronica persica (VERPE); 5 g/ha) | Post-emergence action against VERPE (Veronica persica (VERPE); 20 g/ha) | Post-emergence action at 1.25 g/ha against AMARE in % [1] | Post-emergence action at 5 g/ha against AMARE in % [1] | Post-emergence action at 20 g/ha against AMARE in % [1] | Post-emergence action against VIOTR (Viola tricolor (VIOTR); 1.25 g/ha) | Post-emergence action against VIOTR (Viola tricolor (VIOTR); 5 g/ha) | Post-emergence action against VIOTR (Viola tricolor (VIOTR); 20 g/ha) | Post-emergence action against POLCO in % ([2]; dosage 1.25 g/ha) | Post-emergence action against POLCO in % ([2]; dosage 5 g/ha) | Post-emergence action against POLCO in % ([2]; dosage 20 g/ha) | Post-emergence action against STEME (Stellaria media (STEME); 1.25 g/ha) | Post-emergence action against STEME (Stellaria media (STEME); 5 g/ha) | Post-emergence action against STEME (Stellaria media (STEME); 20 g/ha) | Post-emergence action at 1.25 g/ha against ABUTH in % [3] | Post-emergence action at 5 g/ha against ABUTH in % [3] | Post-emergence action at 20 g/ha against ABUTH in % [3] | Post-emergence action against PHBPU in % ([4]; dosage 1.25 g/ha) | Post-emergence action against PHBPU in % ([4]; dosage 5 g/ha) | Post-emergence action against PHBPU in % ([4]; dosage 20 g/ha) | Post-emergence action against ECHCG in % ([5]; dosage 20 g/ha) | Post-emergence action against SETVI (Setaria viridis (SETVI)) | Post-emergence action against SETVI in % (Setaria viridis (SETVI); dosage 1.25 g/ha) | Post-emergence action against SETVI in % (Setaria viridis (SETVI); dosage 5 g/ha) | Post-emergence action against MATIN in % ([7]; dosage 20 g/ha)
